This is an account of results in patent US8637499B2, “Benzoxazepines as inhibitors of PI3K/mTOR and methods of their use and manufacture” (Exelixis, Inc., priority 2009, dated 2014).

Structures are written as SMILES. Some results are limits rather than exact numbers.

Assay [1] addresses mTORC1 (mTOR/GbL/Raptor) (Homo sapiens, UniProt P42345). Nature of the assay: mTOR/GbL/Raptor (mTORC1) ELISA Assay. The format is biochemical. Conditions: 0.2 nM mTORC1, 10 μM ATP, 50 nM NHis-tagged 4E-BP1; phosphorylation of 4E-BP1; read-out: IC50. In a few lines: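 mTORC1 (0.2 nM) phosphorylated NHis-tagged 4E-BP1 (50 nM) with 10 μM ATP in 20 mM Hepes pH 7.2, 10 mM MnCl2, for 120 min at ambient temperature. Product was captured on Ni-chelate plates and detected with anti-phospho-4E-BP1 plus HRP secondary antibody by chemiluminescence.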
For orientation: In an ELISA, binding on a coated surface is turned into a signal by an enzyme label.

Assay [2] concerns the target PI3Kα (Homo sapiens, UniProt P42336). The experiment in a line: PI3K Biochemical Assays (ATP consumption, luciferase-luciferin chemiluminescence). Conditions: PI3Kα 1.5 nM, ATP 1 μM, PIP2 10 μM; percent of ATP consumed. In a few lines: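 Kinase activity read as percent ATP consumed via luciferase-luciferin chemiluminescence. 1.5 nM enzyme, 1 μM ATP, 10 μM PIP2 in 50 mM Tris pH 7.5, 1 mM EGTA, 10 mM MgCl2, 1 mM DTT, 0.03% CHAPS; ~2 h at ambient temperature, ATP consumption kept to 40-60%.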

Sequence of PI3Kα (P42336 whole entry): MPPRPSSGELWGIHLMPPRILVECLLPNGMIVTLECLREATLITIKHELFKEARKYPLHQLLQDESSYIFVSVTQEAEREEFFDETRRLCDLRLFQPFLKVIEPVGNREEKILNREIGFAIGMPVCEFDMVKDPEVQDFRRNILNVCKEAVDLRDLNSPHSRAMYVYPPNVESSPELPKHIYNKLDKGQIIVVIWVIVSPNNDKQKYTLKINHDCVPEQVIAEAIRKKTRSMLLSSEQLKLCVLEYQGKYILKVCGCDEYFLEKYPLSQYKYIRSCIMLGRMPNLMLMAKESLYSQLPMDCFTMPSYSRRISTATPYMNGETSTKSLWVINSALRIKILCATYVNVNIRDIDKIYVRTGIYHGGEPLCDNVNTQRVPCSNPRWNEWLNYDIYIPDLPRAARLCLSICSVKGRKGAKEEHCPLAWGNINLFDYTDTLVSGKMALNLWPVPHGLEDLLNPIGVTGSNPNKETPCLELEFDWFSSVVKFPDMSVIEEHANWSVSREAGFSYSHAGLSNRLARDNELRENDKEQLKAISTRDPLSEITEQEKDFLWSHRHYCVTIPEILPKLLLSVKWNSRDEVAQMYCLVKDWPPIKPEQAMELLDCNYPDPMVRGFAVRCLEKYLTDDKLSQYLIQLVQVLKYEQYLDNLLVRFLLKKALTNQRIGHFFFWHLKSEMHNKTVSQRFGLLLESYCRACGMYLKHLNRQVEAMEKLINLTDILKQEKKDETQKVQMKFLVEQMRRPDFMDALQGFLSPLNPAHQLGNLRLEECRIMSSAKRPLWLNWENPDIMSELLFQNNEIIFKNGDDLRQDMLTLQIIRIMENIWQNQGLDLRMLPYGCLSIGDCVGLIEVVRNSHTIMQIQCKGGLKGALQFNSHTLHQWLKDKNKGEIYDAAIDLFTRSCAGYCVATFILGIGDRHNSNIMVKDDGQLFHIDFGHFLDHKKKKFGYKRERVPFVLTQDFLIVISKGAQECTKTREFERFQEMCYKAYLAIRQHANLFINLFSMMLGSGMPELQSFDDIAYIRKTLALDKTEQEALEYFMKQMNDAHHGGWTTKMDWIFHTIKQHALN
Sequence of PI3Kα (P27986 whole entry partner): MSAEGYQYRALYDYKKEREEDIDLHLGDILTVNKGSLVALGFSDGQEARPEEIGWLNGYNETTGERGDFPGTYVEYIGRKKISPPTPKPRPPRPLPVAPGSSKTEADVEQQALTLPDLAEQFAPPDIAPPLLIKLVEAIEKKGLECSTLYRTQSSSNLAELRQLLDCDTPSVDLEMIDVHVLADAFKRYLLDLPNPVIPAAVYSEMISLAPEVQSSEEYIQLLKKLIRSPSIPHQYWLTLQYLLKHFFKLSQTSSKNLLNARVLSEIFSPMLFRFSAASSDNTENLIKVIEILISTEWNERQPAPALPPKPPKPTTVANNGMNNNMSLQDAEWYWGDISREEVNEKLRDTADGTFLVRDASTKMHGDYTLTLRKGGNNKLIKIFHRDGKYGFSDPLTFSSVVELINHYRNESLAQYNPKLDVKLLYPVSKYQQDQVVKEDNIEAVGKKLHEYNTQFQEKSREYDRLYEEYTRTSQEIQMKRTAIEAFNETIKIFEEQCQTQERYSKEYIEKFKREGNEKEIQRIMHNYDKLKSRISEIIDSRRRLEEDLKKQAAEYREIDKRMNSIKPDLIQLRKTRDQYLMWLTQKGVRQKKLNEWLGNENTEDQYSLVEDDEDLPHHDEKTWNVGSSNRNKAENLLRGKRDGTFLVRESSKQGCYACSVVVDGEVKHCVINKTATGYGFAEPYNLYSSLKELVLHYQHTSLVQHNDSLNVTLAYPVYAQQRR

For the compound `O=C1CCN(C(=O)N2CCOc3ccc(-c4cnc5[nH]cnc5c4)cc3C2)C(c2cccc(F)c2)C1` (stereo not shown) [Compound 52, 2-(3-fluorophenyl)-1-{[7-(3H-imidazo[4,5-b]pyridin-6-yl)-2,3-dihydro-1,4-benzoxazepin-4(5H)-yl]carbonyl}piperidin-4-one], the IC50 (in general, the concentration that inhibits the measured activity by half) in assay [1] is 50 to 250 nM; in assay [2], 200 to 500 nM.

Take `O=C1CCN(C(=O)N2CCOc3ccc(-c4ccc(-c5ncc[nH]5)cc4)cc3C2)C(c2ccc(F)c(F)c2)C1` (stereo not shown) [Compound 53, 2-(3,4-difluorophenyl)-1-({7-[4-(1H-imidazol-2-yl)phenyl]-2,3-dihydro-1,4-benzoxazepin-4(5H)-yl}carbonyl)piperidin-4-one]: the IC50 in assay [1] is no more than 50 nM; in assay [2], no more than 75 nM.

Take `O=C1CCN(C(=O)N2CCOc3ccc(-c4ccc(-c5ncc[nH]5)cc4)cc3C2)C(c2ccc(F)cc2)C1` (stereo not shown) [Compound 54, 2-(4-fluorophenyl)-1-({7-[4-(1H-imidazol-2-yl)phenyl]-2,3-dihydro-1,4-benzoxazepin-4(5H)-yl}carbonyl)piperidin-4-one]: the IC50 is no more than 50 nM in assay [1] and no more than 75 nM in assay [2].

As for `O=C1CCN(C(=O)N2CCOc3ccc(-c4ccc(-c5ncc[nH]5)cc4)cc3C2)C(c2cccc(F)c2)C1` (stereo not shown) [Compound 55, 2-(3-fluorophenyl)-1-({7-[4-(1H-imidazol-2-yl)phenyl]-2,3-dihydro-1,4-benzoxazepin-4(5H)-yl}carbonyl)piperidin-4-one], the IC50 in assay [1] is no more than 50 nM; in assay [2], no more than 75 nM.

As for `O=C1CCN(C(=O)N2CCOc3ccc(-c4ccc(-c5ncc[nH]5)cc4)cc3C2)[C@@H](c2ccc(F)cc2)C1` [Compound 56, (2R)-2-(4-fluorophenyl)-1-({7-[4-(1H-imidazol-2-yl)phenyl]-2,3-dihydro-1,4-benzoxazepin-4(5H)-yl}carbonyl)piperidin-4-one], the IC50 in assay [1] was no more than 50 nM; in assay [2], no more than 75 nM.

On to `O=C1CCN(C(=O)N2CCOc3ccc(-c4ccc(-c5ncc[nH]5)cc4)cc3C2)[C@H](c2ccc(F)cc2)C1` [Compound 57, (2S)-2-(4-fluorophenyl)-1-({7-[4-(1H-imidazol-2-yl)phenyl]-2,3-dihydro-1,4-benzoxazepin-4(5H)-yl}carbonyl)piperidin-4-one], for which the IC50 is no more than 50 nM in assay [1] and no more than 75 nM in assay [2].

In the case of `O=C(N1CCC(CF)CC1)N1CCOc2ccc(-c3ccc(-c4ncc[nH]4)cc3)cc2C1` [Compound 58, 4-{[4-(fluoromethyl)piperidin-1-yl]carbonyl}-7-[4-(1H-imidazol-2-yl)phenyl]-2,3,4,5-tetrahydro-1,4-benzoxazepine], the IC50 in assay [1] is no more than 50 nM; in assay [2], 75 to 200 nM.

As to `O=C(N1CCOc2ccc(-c3ccc(-c4ncc[nH]4)cc3)cc2C1)N1[C@@H]2CC[C@H]1C[C@](O)(C(F)(F)F)C2` [Compound 59, 8-({7-[4-(1H-imidazol-2-yl)phenyl]-2,3-dihydro-1,4-benzoxazepin-4(5H)-yl}carbonyl)-3-(trifluoromethyl)-8-azabicyclo[3.2.1]octan-3-(endo)-ol], the IC50 was no more than 50 nM in assay [1] and no more than 75 nM in assay [2].

For `CC1CCN(C(=O)N2CCOc3ccc(-c4ccc(-c5ncc[nH]5)cc4)cc3C2)CC1` [Compound 60, 7-[4-(1H-imidazol-2-yl)phenyl]-4-[(4-methylpiperidin-1-yl)carbonyl]-2,3,4,5-tetrahydro-1,4-benzoxazepine], the results for the IC50 in assay [1] and in assay [2] were no more than 50 nM and no more than 75 nM, respectively.

Turning to `N#CC1CCN(C(=O)N2CCOc3ccc(-c4ccc(-c5ncc[nH]5)cc4)cc3C2)CC1` [Compound 61, 1-({7-[4-(1H-imidazol-2-yl)phenyl]-2,3-dihydro-1,4-benzoxazepin-4(5H)-yl}carbonyl)piperidine-4-carbonitrile], the IC50 is no more than 50 nM in assay [1] and 75 to 200 nM in assay [2].

Take `O=C(N1CCC(C(F)F)CC1)N1CCOc2ccc(-c3ccc(-c4ncc[nH]4)cc3)cc2C1` [Compound 62, 4-{[4-(difluoromethyl)piperidin-1-yl]carbonyl}-7-[4-(1H-imidazol-2-yl)phenyl]-2,3,4,5-tetrahydro-1,4-benzoxazepine]: the IC50 in assay [1] was no more than 50 nM; in assay [2] it was 75 to 200 nM.

As to `N#CC1CCN(C(=O)N2CCOc3ccc(-c4ccc(-c5ncc[nH]5)nc4)cc3C2)CC1` [Compound 63, 1-({7-[6-(1H-imidazol-2-yl)pyridin-3-yl]-2,3-dihydro-1,4-benzoxazepin-4(5H)-yl}carbonyl)piperidine-4-carbonitrile], the IC50 in assay [1] is 50 to 250 nM; in assay [2], 500 to 1000 nM.

For the compound `O=C1CCN(C(=O)N2CCOc3ccc(-c4ccc(C(=O)NCC(F)F)cc4)cc3C2)C(c2cccc(F)c2)C1` (stereo not shown) [Compound 64, N-(2,2-difluoroethyl)-4-(4-{[2-(3-fluorophenyl)-4-oxopiperidin-1-yl]carbonyl}-2,3,4,5-tetrahydro-1,4-benzoxazepin-7-yl)benzamide], the IC50 fell in the range of 50 to 250 nM in assay [1] and 500 to 1000 nM in assay [2].

With `Cc1nc2ccc(-c3ccc4c(c3)CN(C(=O)N3CCCC[C@@H]3c3ccccc3)CCO4)cc2[nH]1` [Compound 66, 7-(2-methyl-1H-benzimidazol-6-yl)-4-{[(2R)-2-phenylpiperidin-l-yl]carbonyl}-2,3,4,5-tetrahydro-1,4-benzoxazepine], the IC50 in assay [1] was no more than 50 nM; in assay [2] it was no more than 75 nM.

As for `Cc1nc2ccc(-c3ccc4c(c3)CN(C(=O)N3CCC(F)(F)CC3)CCO4)cc2[nH]1` [Compound 67, 4-[(4,4-difluoropiperidin-1-yl)carbonyl]-7-(2-methyl-1H-benzimidazol-6-yl)-2,3,4,5-tetrahydro-1,4-benzoxazepine], the values for the IC50 in assay [1] and in assay [2] were 250 to 700 nM and 1000 to 3000 nM, respectively.

With `Cc1nc2ccc(-c3ccc4c(c3)CN(C(=O)N3CCC(O)CC3)CCO4)cc2[nH]1` [Compound 68, 1-{[7-(2-methyl-1H-benzimidazol-6-yl)-2,3-dihydro-1,4-benzoxazepin-4(5H)-yl]carbonyl}piperidin-4-ol], the IC50 in assay [1] was in the range of 250 to 700 nM; in assay [2] it was 1000 to 3000 nM.

Consider `Cc1nc2ccc(-c3ccc4c(c3)CN(C(=O)N3CCC(Cc5ccc(Cl)cc5)CC3)CCO4)cc2[nH]1` [Compound 69, 4-({4-[(4-chlorophenyl)methyl]piperidin-1-yl}carbonyl)-7-(2-methyl-1H-benzimidazol-6-yl)-2,3,4,5-tetrahydro-1,4-benzoxazepine], for which the 50% inhibitory concentration (IC50) in assay [1] was 50 to 250 nM; in assay [2] it was 1000 to 3000 nM.

Take `Cc1nc2ccc(-c3ccc4c(c3)CN(C(=O)N3CCC(Oc5ccc(Cl)cc5)CC3)CCO4)cc2[nH]1` [Compound 70, 4-({4-[(4-chlorophenyl)oxy]piperidin-1-yl}carbonyl)-7-(2-methyl-1H-benzimidazol-6-yl)-2,3,4,5-tetrahydro-1,4-benzoxazepine]: the half-maximal inhibitory concentration (IC50) in assay [1] lay in the range of 50 to 250 nM; in assay [2], 1000 to 3000 nM.

Regarding `CCC1CCCN(C(=O)N2CCOc3ccc(-c4ccc5nc(C)[nH]c5c4)cc3C2)C1` (stereo not shown) [Compound 72, 4-[(3-ethylpiperidin-1-yl)carbonyl]-7-(2-methyl-1H-benzimidazol-6-yl)-2,3,4,5-tetrahydro-1,4-benzoxazepine], the values for the IC50 in assay [1] and in assay [2] were 50 to 250 nM and 200 to 500 nM, respectively.

For `Cc1nc2ccc(-c3ccc4c(c3)CN(C(=O)N3CCCCC3c3ccc(F)cc3)CCO4)cc2[nH]1` (stereo not shown) [Compound 73, 4-{[2-(4-fluorophenyl)piperidin-1-yl]carbonyl}-7-(2-methyl-1H-benzimidazol-6-yl)-2,3,4,5-tetrahydro-1,4-benzoxazepine], the IC50 in assay [1] was no more than 50 nM; in assay [2] it was no more than 75 nM.
